The numbers were not newly measured in patent US9969755B2, “Photodynamic therapy photosensitizers” (The Royal Institution for the Advancement of …, priority 2016, dated 2018), which cites them from elsewhere.

The conditions of the series: reference value; cited from earlier work.

In the case of `O=C([O-])c1c(Cl)c(Cl)c(Cl)c(Cl)c1-c1c2cc(I)c(=O)c(I)c-2oc2c(I)c([O-])c(I)cc12.[Na+].[Na+]` [Rose Bengal], the “φΔ of reference standard” value is on record as 0.54.
